{"source": "patent US20150150812A1", "about": "“CONTROLLED RELEASE FORMULATIONS WITH […]” (Egalet Ltd., priority 2009, published 2015)", "origin": "cited, not measured here", "system": "postoperative patients", "data": [{"smiles": "CN1CC[C@]23c4c5ccc(O)c4O[C@H]2[C@@H](O)C=C[C@H]3[C@H]1C5", "note": "[morphine]", "values": [{"measurement": "Calculated mean (SD) MEAC", "setting": "10 postoperative patients, Dahlström et al (1982)", "result": "16 (9) ng/mL"}, {"measurement": "Estimated MEAC", "setting": "postoperative patients, patient-controlled analgesia, Graves et al (1985)", "result": "20 to 40", "unit": "ng/mL"}]}]}
